Test results reported in patent US20240246964A1 (Arbutus Biopharma Corporation, priority 2021, published 2024).

Target: human PD-L1 (Homo sapiens (Human), UniProt Q9NZQ7)
Assay: T cell activation luciferase reporter cell culture system (T Cell Activation Assay)
Assay type: cell-based
Settings: luciferase reporter assay; PD-L1 aAPC/CHO-K1 cells with PD-1 effector Jurkat T cells

Sequence of human PD-L1 (Q9NZQ7 19-290): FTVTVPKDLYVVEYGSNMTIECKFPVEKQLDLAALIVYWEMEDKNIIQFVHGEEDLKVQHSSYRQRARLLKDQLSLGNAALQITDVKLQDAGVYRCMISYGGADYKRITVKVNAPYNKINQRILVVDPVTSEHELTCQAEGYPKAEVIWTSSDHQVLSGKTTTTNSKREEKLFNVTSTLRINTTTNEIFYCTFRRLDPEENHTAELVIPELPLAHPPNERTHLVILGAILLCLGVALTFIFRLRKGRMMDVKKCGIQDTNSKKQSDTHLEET

| SMILES | EC50 [nM] |
| --- | --- |
| COc1nc(-c2cccc(-c3ccnc(-c4ccc5c(c4)CCC[C@H]5NC[C@@H]4CCC(=O)N4)c3Cl)c2Cl)ccc1CNC[C@H](C)O [Example 256, (S)-5-((((R)-6-(3-Chloro-4-(2-chloro-3-(5-((((S)-2-hydroxypropyl)amino)methyl)-6-methoxypyridin-2-yl)phenyl)pyridin-2-yl)-1,2,3,4-tetrahydronaphthalen-1-yl)amino)methyl)pyrrolidin-2-one] | 168 |
| COc1nc(-c2cccc(-c3ccnc(-c4ccc5c(c4)CCC[C@H]5NC[C@@H]4CCC(=O)N4)c3Cl)c2Cl)ccc1CN[C@H]1CCOC1=O [Example 257, (S)-5-((((R)-6-(3-Chloro-4-(2-chloro-3-(6-methoxy-5-((((S)-2-oxotetrahydrofuran-3-yl)amino)methyl)pyridin-2-yl)phenyl)pyridin-2-yl)-1,2,3,4-tetrahydronaphthalen-1-yl)amino)methyl)pyrrolidin-2-one] | ≥ 10000 |
| COc1nc(-c2cccc(-c3ccnc(-c4cc(OC)c5nc(CNC[C@@H]6CCC(=O)N6)nn5c4)c3Cl)c2Cl)ccc1CNC[C@@H]1CCC(=O)N1 [Example 258, (S)-5-((((6-(2-chloro-3-(3-chloro-2-(8-methoxy-2-(((((S)-5-oxopyrrolidin-2-yl)methyl)amino)methyl)-[1,2,4]triazolo[1,5-a]pyridin-6-yl)pyridin-4-yl)phenyl)-2-methoxypyridin-3-yl)methyl)amino)methyl)pyrrolidin-2-one] | 75.4 |
| COc1nc(-c2cccc(-c3ccnc(-c4cc(OC)c5nc(CN6CC(C)(O)C6)nn5c4)c3Cl)c2Cl)ccc1CNC[C@@H]1CCC(=O)N1 [Example 259, (S)-5-((((6-(2-Chloro-3-(3-chloro-2-(2-((3-hydroxy-3-methylazetidin-1-yl)methyl)-8-methoxy-[1,2,4]triazolo[1,5-a]pyridin-6-yl)pyridin-4-yl)phenyl)-2-methoxypyridin-3-yl)methyl)amino)methyl)pyrrolidin-2-one] | 58.6 |
| COc1nc(-c2cccc(-c3ccnc(-c4cc(OC)c5nc(CN[C@H]6CC[C@H](O)CC6)nn5c4)c3Cl)c2Cl)ccc1CNC[C@@H]1CCC(=O)N1 [Example 260, (S)-5-((((6-(2-Chloro-3-(3-chloro-2-(2-((((1r,4r)-4-hydroxycyclohexyl)amino)methyl)-8-methoxy-[1,2,4]triazolo[1,5-a]pyridin-6-yl)pyridin-4-yl)phenyl)-2-methoxypyridin-3-yl)methyl)amino)methyl)pyrrolidin-2-one] | 26.8 |
| COc1nc(-c2cccc(-c3ccnc(-c4cc(OC)c5nc(CN6CC(C(=O)O)C6)nn5c4)c3Cl)c2Cl)ccc1CNC[C@@H]1CCC(=O)N1 [Example 261, (S)-1-((6-(3-Chloro-4-(2-chloro-3-(6-methoxy-5-((((5-oxopyrrolidin-2-yl)methyl)amino)methyl)pyridin-2-yl)phenyl)pyridin-2-yl)-8-methoxy-[1,2,4]triazolo[1,5-a]pyridin-2-yl)methyl)azetidine-3-carboxylic acid] | 126 |
| COc1nc(-c2cccc(-c3ccnc(-c4cc(OC)c5nc(CNCCC6(C(=O)O)CC6)nn5c4)c3Cl)c2Cl)ccc1CNC[C@@H]1CCC(=O)N1 [Example 262, (S)-1-(2-(((6-(3-Chloro-4-(2-chloro-3-(6-methoxy-5-((((5-oxopyrrolidin-2-yl)methyl)amino)methyl)pyridin-2-yl)phenyl)pyridin-2-yl)-8-methoxy-[1,2,4]triazolo[1,5-a]pyridin-2-yl)methyl)amino)ethyl)cyclopropane-1-carboxylic acid] | 82.8 |
| COc1cc(-c2nccc(-c3cccc(-c4ccc5c(CN(C)C6CCN(C(C)=O)CC6)cn(C)c5n4)c3Cl)c2Cl)ccc1CNC1CCN(C(C)=O)CC1 [Example 264, 1-(4-((4-(4-(3-(3-(((1-acetylpiperidin-4-yl)(methyl)amino)methyl)-1-methyl-1H-pyrrolo[2,3-b]pyridin-6-yl)-2-chlorophenyl)-3-chloropyridin-2-yl)-2-methoxybenzyl)amino)piperidin-1-yl)ethan-1-one] | 47.7 |
| COc1nc(-c2cccc(-c3ccnc(-c4ccc5c(c4)CCC[C@H]5NC[C@@H]4CCC(=O)N4)c3Cl)c2Cl)ccc1CN[C@@H](CCO)C(=O)O [Example 265, ((6-(2-Chloro-3-(3-chloro-2-((R)-5-((((S)-5-oxopyrrolidin-2-yl)methyl)amino)-5,6,7,8-tetrahydronaphthalen-2-yl)pyridin-4-yl)phenyl)-2-methoxypyridin-3-yl)methyl)-L-homoserine] | 368 |
| COc1cc(-c2nccc(-c3cccc4c3CC[C@@H]4Oc3nc(OC)c(CNC[C@H](C)O)cc3C(F)(F)F)c2Cl)ccc1CNC[C@H](C)O [Example 270, (S)-1-(((6-(((S)-4-(3-Chloro-2-(4-((((S)-2-hydroxypropyl)amino)methyl)-3-methoxyphenyl)pyridin-4-yl)-2,3-dihydro-1H-inden-1-yl)oxy)-2-methoxy-5-(trifluoromethyl)pyridin-3-yl)methyl)amino)propan-2-ol] | 85.5 |
| COc1cc(-c2nccc(-c3cccc(-c4ccc(CNC5CCN(C(C)=O)CC5)c(OC)n4)c3Cl)c2C)ccc1CNC1CCN(C(C)=O)CC1 [Example 271, 1-(4-(((6-(3-(2-(4-(((1-Acetylpiperidin-4-yl)amino)methyl)-3-methoxyphenyl)-3-methylpyridin-4-yl)-2-chlorophenyl)-2-methoxypyridin-3-yl)methyl)amino)piperidin-1-yl)ethan-1-one] | 183 |
| COC(=O)CCN1CCc2cc(-c3nccc(-c4cccc(-c5ccc(CNC[C@H](C)O)c(OC)n5)c4Cl)c3Cl)cc(OC)c2C1 [Example 272, Methyl (S)-3-(6-(3-chloro-4-(2-chloro-3-(5-(((2-hydroxypropyl)amino)methyl)-6-methoxypyridin-2-yl)phenyl)pyridin-2-yl)-8-methoxy-3,4-dihydroisoquinolin-2(1H)-yl)propanoate] | 88.2 |
| COC(=O)CCN1CCc2cc(-c3nccc(-c4cccc(-c5ccc(CN6CC7(CNC(=O)C7)C6)c(OC)n5)c4Cl)c3Cl)cc(OC)c2C1 [Example 273, Methyl 3-(6-(3-chloro-4-(2-chloro-3-(6-methoxy-5-((7-oxo-2,6-diazaspiro[3.4]octan-2-yl)methyl)pyridin-2-yl)phenyl)pyridin-2-yl)-8-methoxy-3,4-dihydroisoquinolin-2(1H)-yl)propanoate] | 116 |
| COc1cc(-c2nccc(-c3cccc(-c4ccc(CNC[C@H](C)O)c(OC)n4)c3Cl)c2C)ccc1CNC[C@H](C)O [Example 274, (S)-1-(((6-(2-Chloro-3-(2-(4-((((S)-2-hydroxypropyl)amino)methyl)-3-methoxyphenyl)-3-methylpyridin-4-yl)-phenyl)-2-methoxypyridin-3-yl)-methyl)-amino)propan-2-ol] | 114 |
| COc1cc(-c2nccc(-c3cccc(-c4ccc(CN5CC6(CNC(=O)C6)C5)c(OC)n4)c3Cl)c2F)ccc1CN1CC2(CNC(=O)C2)C1 [Example 324, 2-(4-(4-(2-chloro-3-(6-methoxy-5-((7-oxo-2,6-diazaspiro[3.4]octan-2-yl)methyl)pyridin-2-yl)phenyl)-3-fluoropyridin-2-yl)-2-methoxybenzyl)-2,6-diazaspiro[3.4]octan-7-one] | 31.4 |
| COc1cc(-c2nccc(-c3cccc(-c4ccc(CNCC5CCOCC5)c(OC)n4)c3Cl)c2Cl)ccc1CNCC1CCOCC1 [Example 330, 1-(6-(2-Chloro-3-(3-chloro-2-(3-methoxy-4-((((tetrahydro-2H-pyran-4-yl)methyl)amino)methyl)phenyl)pyridin-4-yl)phenyl)-2-methoxypyridin-3-yl)-N-((tetrahydro-2H-pyran-4-yl)methyl)methanamine] | 73.8 |
| CNCc1ccc(-c2nccc(-c3cccc(-c4ccc(CNC)c(OC)n4)c3Cl)c2C)cc1OC [Example 334, 1-(6-(2-Chloro-3-(2-(3-methoxy-4-((methylamino)methyl)phenyl)-3-methylpyridin-4-yl)phenyl)-2-methoxypyridin-3-yl)-N-methylmethanamine] | 38.5 |
| COc1cc(-c2nccc(-c3cccc(-c4ccc(CNC[C@@H]5CCC(=O)N5)c(OC)n4)c3Cl)c2Cl)ccc1[C@H](C)N [Example 335, (S)-5-((((6-(3-(2-(4-((S)-1-Aminoethyl)-3-methoxyphenyl)-3-chloropyridin-4-yl)-2-chlorophenyl)-2-methoxypyridin-3-yl)methyl)amino)methyl)pyrrolidin-2-one] | 49.8 |
| COc1nc(-c2ccnc(-c3cccc4c3CC[C@@H]4Oc3nc(OC)c(CN4CC5(CNC(=O)C5)C4)cc3C(F)(F)F)c2Cl)ccc1CN1CC2(CNC(=O)C2)C1 [Example 336, (S)-2-((3′-Chloro-6-methoxy-2′-(1-((6-methoxy-5-((7-oxo-2,6-diazaspiro[3.4]octan-2-yl)methyl)-3-(trifluoromethyl)pyridin-2-yl)oxy)-2,3-dihydro-1H-inden-4-yl)-[2,4′-bipyridin]-5-yl)methyl)-2,6-diazaspiro[3.4]octan-7-one] | 95.6 |
| COc1cc(-c2nccc(-c3cccc(-c4ccc(CNC5CCN(C(=O)C6CC6)CC5)c(OC)n4)c3Cl)c2Cl)ccc1CNC1CCN(C(=O)C2CC2)CC1 [Example 345, (4-(((6-(2-Chloro-3-(3-chloro-2-(4-(((1-(cyclopropanecarbonyl)piperidin-4-yl)amino)methyl)-3-methoxyphenyl)pyridin-4-yl)phenyl)-2-methoxypyridin-3-yl)methyl)amino)piperidin-1-yl)(cyclopropyl)methanone] | 32.3 |
| COc1cc(-c2nccc(-c3cccc(-c4ccc(CNC5CCN(C(=O)C(C)C)CC5)c(OC)n4)c3Cl)c2Cl)ccc1CNC1CCN(C(=O)C(C)C)CC1 [Example 346, 1-(4-(((6-(2-Chloro-3-(3-chloro-2-(4-(((1-isobutyrylpiperidin-4-yl)amino)methyl)-3-methoxyphenyl)pyridin-4-yl)phenyl)-2-methoxypyridin-3-yl)methyl)amino)piperidin-1-yl)-2-methylpropan-1-one] | 70.5 |
